Laboratory results reported in patent US12173088B2, “Anti-microbial peptides” (priority 2018, dated 2024).
Converted amounts (≈) assume the structure as drawn. Where two headings read alike, the source gives them in different places. Square brackets hold non-standard residues; d marks the D form. Peptide text beside a SMILES is read from it.

How the values were obtained:
P. aeruginosa PAO1 = type: cell-based, Pseudomonas aeruginosa; details: PAO1
Procedure, shortened: (§1)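 Broth microdilution in tryptic soy broth: log-phase cultures (OD600 ≈0.5) diluted to OD600 0.001, given two-fold peptide dilutions, incubated overnight at 37° C. Growth read at 630 nm.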

E. coli ampC E416-7 = type: cell-based, Escherichia coli; details: Table 7
Text: (§2) The bacterial strains used include the Gram-positive strains Staphylococcus aureus USA300 LAC, S. epidermidis 1457, and Bacillus subtilis 168, as well as the Gram-negative isolates Escherichia coli K12 and Acinetobacter baumannii B2367-12. Additional, drug resistance strains include Gram-positive Enterococcus faecium V286-17 (VRE) and S. aureus M838-17 (MRSA) and Gram-negative E. coli E423-17, E. coli E416-17 (ampC), and P. aeruginosa E411-17. Bacteria were cultivated in tryptic soy broth (TSB) (BD Bioscience, MD).
(§3) The antibacterial activity of peptides was evaluated using a standard broth microdilution protocol with minor modifications as described (Mishra, et al. (2012) J. Am. Chem. Soc., 134:12426-12429). In brief, logarithmic phase bacterial cultures (i.e., optical density at 600 nm≈0.5) were diluted to OD600 0.001 and partitioned into a 96-well polystyrene microplate at 90 μL per well. After treatment with 10 μL of peptide solutions two fold diluted to various concentrations, microplates were incubated at 37° C. overnight and read on a ChroMate® 4300 Microplate Reader at 630 nm (GMI, Ramsey, MN). […] To study the influence of medium conditions on the antimicrobial activity of peptides against S. aureus USA300, up to 200 mM sodium chloride (NaCl), 2 mM of calcium chloride, 5-10% of human serum, mouse plasma, fluid, or supernatants of tissue homogenates were included into the assays.

K. pneumoniae E406-17 = experiment: microbe, parasite or virus in culture; type: cell-based, Klebsiella pneumoniae; details: E406-17; for MIC: read-out: MIC K. pneumoniae E406-17
Description: as §3
(§4) The bacterial strains used include the Gram-positive bacteria methicillin-resistant Staphylococcus aureus USA300, Enterococcus faecium V286-17 (VRE), S. aureus M838-17 (MRSA) and Gram-negative bacteria E. coli E423-17, E416-7 (ampC), P. aeruginosa E411-17, PA01, K. pneumoniae E406-17, ATCC13883, and A. baumannii B26-16. Bacteria were cultivated in tryptic soy broth (TSB) from BD Bioscience.
(§5) The antibacterial activity of peptides was evaluated using a standard broth microdilution protocol with minor modifications (Mishra, et al. (2017) Acta Biomater., 49:316-328). In brief, logarithmic phase bacterial cultures (i.e., optical density at 600 nm≈0.5) were diluted to 0.001 OD and aliquoted 90 μL per well into a 96-well polystyrene microplate. Added 10 μL peptides per well with various concentrations, plates were incubated at 37° C., overnight. Post incubation the plates are read at 630 nm using a ChroMate® Microplate Reader (GMI). […] To study the influence of medium conditions on the antimicrobial activity of peptides against S. aureus USA300 at different pHs (6.8, 7.2, and 8.0), 150 mM sodium chloride (NaCl), 5-10% of human serum, mouse plasma, and peritoneal fluid were included into the assays.

P. aeruginosa E411-17 = experiment: microbe, parasite or virus in culture; type: cell-based, Pseudomonas aeruginosa; details: E411-17; for MIC: read-out: MIC P. aeruginosa E411-17
Text: as §2, §3, §4, §5

Hemolytic assay = type: cell-based, human; details: human, human red blood cells, 2% (v/v)
Procedure, shortened: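 HL50 marks the peptide level lysing half of a 2% (v/v) suspension of washed human erythrocytes after 1 h at 37 °C. Released hemoglobin measured at 545 nm, scaled between PBS (0%) and Triton X-100 (2% or 1%; 100%). Selectivity index computed as HL50 over MIC.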

E. faecium V286-17 (VRE) = experiment: microbe, parasite or virus in culture; type: cell-based, Enterococcus faecium; details: V286-17 (VRE); for MIC: read-out: MIC E. faecium V286-17 (VRE)
Text: as §2, §3, §4, §5

E. coli E423-17 = experiment: microbe, parasite or virus in culture; type: cell-based, Escherichia coli; details: E423-17; read-out: MIC E. coli E423-17
Text: as §2, §3, §4, §5

S. aureus M838-17 (MRSA) = experiment: microbe, parasite or virus in culture; type: cell-based, Staphylococcus aureus; details: M838-17
Procedure, shortened: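 Peptides were serially diluted two-fold against bacteria grown in tryptic soy broth to log phase (OD600 ≈0.5), then seeded at OD600 0.001. Plates were held overnight at 37° C and read at 630 nm. USA300 was also tested at pH 6.8, 7.2 and 8.0, with 150 mM NaCl or 5-10% serum, plasma or peritoneal fluid.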

S. aureus USA300 [1] = experiment: microbe, parasite or virus in culture; type: cell-based, Staphylococcus aureus
Procedure, shortened: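 Broth microdilution: log-phase cultures in tryptic soy broth diluted to OD600 0.001, exposed to two-fold diluted peptides at 37° C overnight, growth read at 630 nm. Medium effects on S. aureus USA300 tested with up to 200 mM NaCl, 2 mM CaCl2, 5-10% human serum, mouse plasma, fluids or tissue homogenate supernatants.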

E. coli ATCC 25922 = type: cell-based, Escherichia coli; details: ATCC 25922
Procedure, shortened: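 Peptides, serially diluted two-fold, were incubated overnight at 37 °C with E. coli ATCC 25922 from log-phase cultures adjusted to OD600 0.001. Turbidity at 630 nm served as the read-out in this broth microdilution format.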

A. baumannii B26-16 = experiment: microbe, parasite or virus in culture; type: cell-based, Acinetobacter baumannii; details: B26-16; read-out: MIC A. baumannii B26-16
Description: as §4, §5

K. pneumoniae ATCC 13883 = type: cell-based, Klebsiella pneumoniae; details: ATCC 13883
Procedure, shortened: as §1

S. aureus USA300 [2] = experiment: Propidium iodide membrane permeation; type: cell-based, Staphylococcus aureus
Description: The membrane permeation experiment was performed as described with minor modifications (Wang, et al. (2005) J. Biol. Chem., 280:5803-5811). Serially diluted 10× peptides (10 μL each well) were created in 96-well microtiter plates. Propidium iodide (2 μL) at a fixed concentration of 20 μM were added to each well followed by 88 μL of the S. aureus USA300 culture (a final OD600˜0.1 in TSB media). The plate was incubated at 37° C. with continuous shaking at 100 rpm in a FLUOstar® Omega (BMG LABTECH, Cary, NC) microplate reader. The fluorescence from the plate was read every 5 minutes for a total duration of 2 hours with an excitation and emission wavelengths of 584 nm and 620 nm, respectively. Plots were made using average values of duplicated experiments with MARS software.
The experiment was performed as described previously with minor modifications (Mishra, et al. (2017) Acta Biomater., 49:316-328). Serially diluted 10× peptides (10 μL each well) were created in 96-well microtiter plates. Propidium iodide (2 μL) at a fixed concentration of 20 μM were added to each well followed by 88 μL of the S. aureus USA300 culture (a final OD600˜0.1 in TSB media or PBS). The plate was incubated at 37° C. with continuous shaking at 100 rpm in a FLUOstar® Omega (BMG LABTECH) microplate reader. The samples fluorescence was read at every 5 minutes for 24 cycles with an excitation and emission wavelengths of 584 nm and 620 nm, respectively. Plots generated using average values from the experiments using GraphPad Prism.

[3] = USA300, read-out: MIC S. aureus USA300 (MRSA)

Compound | MIC (K. pneumoniae E406-17) | MIC (P. aeruginosa E411-17) | HC50 at 1 h (Hemolytic assay) | MIC (E. coli E423-17) | MIC (A. baumannii B26-16) | MIC K. pneumoniae ATCC 13883 (K. pneumoniae ATCC 13883) | MIC (E. faecium V286-17 (VRE)) | MIC S. aureus USA 300 (S. aureus USA300 [1]; USA300) | MIC (S. aureus USA300 [1]; [3]) | MIC E. coli ATCC 25922 (E. coli ATCC 25922) | also measured
CC(C)C[C@@H](NC(=O)[C@@H](CC(C)C)NC(=O)[C@@H](CCCCN)NC(=O)[C@@H](CC(C)C)NC(=O)CNC(=O)[C@@H](CC(C)C)NC(=O)[C@@H](CO)NC(=O)[C@@H](CC(C)C)NC(=O)[C@@H](CC(C)C)NC(=O)[C@@H](CC(C)C)NC(=O)[C@@H](CO)NC(=O)[C@@H](CC(C)C)NC(=O)CN)C(N)=O [DFT503d, GLSLLLSLGLKLL] (H-G[dL][dS][dL][dL][dL][dS][dL]G[dL][dK][dL][dL]-NH2; N-terminus and C-terminus assumed) | >50 µM | >50 µM | > 300 µM | >50 µM | – | – | – | – | – | – | MIC PA (P. aeruginosa PAO1) (P. aeruginosa PAO1): >25 µM; MIC E. coli ampC E416-7 (E. coli ampC E416-7): >50 µM; MIC E. faecium V286-17 (VRE) (E. faecium V286-17 (VRE)): 3.1 to 6.25 µM; MIC (S. aureus M838-17 (MRSA); read-out: MIC S. aureus M838-17 (MRSA)): 3.1 µM (≈ 4.15 µg/mL); MIC (S. aureus USA300 [1]; 1 mM Ca2+): 1.56 µM (≈ 2.09 µg/mL); MIC (S. aureus USA300 [1]; 2 mM Ca2+): 1.56 µM (≈ 2.09 µg/mL); MIC (S. aureus USA300 [1]; 50 mM NaCl): 1.56 µM (≈ 2.09 µg/mL); MIC (S. aureus USA300 [1]; 100 mM NaCl): 1.56 µM (≈ 2.09 µg/mL); MIC (S. aureus USA300 [1]; 200 mM NaCl): 1.56 µM (≈ 2.09 µg/mL); MIC (S. aureus USA300 [1]; No salts added, Table 6, by UV): 1.56 µM; MIC (S. aureus USA300 [1]; USA300): 3.1 µM (≈ 4.15 µg/mL); MIC SA (S. aureus USA300) (S. aureus USA300 [1]; USA300): 1.6 µM (≈ 2.14 µg/mL); MIC (S. aureus USA300 [1]; USA300, pH 6.8): 3.1 µM (≈ 4.15 µg/mL); MIC (S. aureus USA300 [1]; USA300, pH 7.4): 3.1 µM (≈ 4.15 µg/mL); MIC (S. aureus USA300 [1]; USA300, pH 8): 1.6 µM (≈ 2.14 µg/mL); MIC EC (E. coli ATCC 25922) (E. coli ATCC 25922): >25 µM
CC[C@H](C)[C@H](NC(=O)[C@H](CCCCN)NC(=O)[C@H](CCCNC(=N)N)NC(=O)[C@H](CC(C)C)NC(=O)[C@H](Cc1c[nH]c2ccccc12)NC(=O)[C@H](Cc1c[nH]c2ccccc12)NC(=O)[C@@H](N)Cc1c[nH]c2ccccc12)C(=O)N[C@@H](Cc1c[nH]c2ccccc12)C(N)=O [WW291, WWWLRKIW] (H-WWWLRKIW-NH2; N-terminus and C-terminus assumed) | ≥32 µM | >32 µM | – | 8 µM (≈ 10.2 µg/mL) | 16 µM (≈ 20.4 µg/mL) | 12.5 µM (≈ 15.9 µg/mL) | 4 µM (≈ 5.09 µg/mL) | 3.1 µM (≈ 3.94 µg/mL) | 4 µM (≈ 5.09 µg/mL) | 6.2 to 12.5 µM | Propidium iodide membrane permeation (S. aureus USA300 [2]): permeate bacterial membranes
CC[C@H](C)[C@H](NC(=O)[C@H](CCCCN)NC(=O)[C@@H](N)CCCNC(=N)N)C(=O)N[C@@H](Cc1c[nH]c2ccccc12)C(=O)N[C@@H](Cc1c[nH]c2ccccc12)C(=O)N[C@@H](Cc1c[nH]c2ccccc12)C(=O)N[C@@H](Cc1c[nH]c2ccccc12)C(=O)N[C@@H](CC(C)C)C(N)=O [WW295, RKIWWWWL] (H-RKIWWWWL-NH2; N-terminus and C-terminus assumed) | 16 µM (≈ 20.4 µg/mL) | 32 µM (≈ 40.7 µg/mL) | 57 µM | 8 µM (≈ 10.2 µg/mL) | 8 µM (≈ 10.2 µg/mL) | 3.1 to 6.2 µM | 4 µM (≈ 5.09 µg/mL) | 3.1 to 6.2 µM | 4 µM (≈ 5.09 µg/mL) | 6.2 µM (≈ 7.89 µg/mL) | MIC K. pneumonia 406-17 (K. pneumoniae E406-17): 12.5 µM (≈ 15.9 µg/mL); MIC P. aeruginosa 411-17 (P. aeruginosa E411-17): >50 µM; MIC S. aureus M838-17 (S. aureus M838-17 (MRSA)): 6.2 to 12.5 µM
